In patent US10800772B2 (Gilead Sciences, Inc., priority 2016, dated 2020):
Read-outs that look alike come from different tables or passages of the source.

How the values were obtained:
Format in all cases: cell-based, HIV-1
[1] = tested on: HIV-IIIb (wildtype); experiment: Antiviral assay in MT4 cells, HIV-IIIb wildtype; conditions: read-out: WT EC50
How it was run: (§1)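 HIV-IIIb at 0.004 m.o.i., 3 h pre-infection of MT4 cells at 37 °C; 2000 cells/well in RPMI 1640 + 10% FBS with 3-fold compound dilutions, 10 conc., quadruplicate. 5-day incubation, CellTiter-Glo readout. EC50 = 50% luminescence decrease.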

[2] = tested on: HIV-IIIb IN T174I BT; experiment: Antiviral assay in MT4 cells, HIV-IIIb IN T174I BT virus (from viral breakthrough)
How it was run: as §1

[3] = tested on: HIV-IIIb IN T174I DE; experiment: Antiviral assay in MT4 cells, HIV-IIIb IN T174I DE virus (from dose escalation passaging)
How it was run: as §1

[4] = Human immunodeficiency virus 1, IIIB, MT4, 120 h
[5] = Human immunodeficiency virus 1, IIIB, MT4, 120 h, read-out: T174I BT EC50, MT4 cells, HIV-IIIb IN T174I BT (viral breakthrough), 5 days, CellTiter-Glo
[6] = Human immunodeficiency virus 1, IIIB, MT4, 120 h, read-out: T174I DE EC50, MT4 cells, HIV-IIIb IN T174I DE (dose escalation), 5 days, CellTiter-Glo

Molecule	EC50 [1, 4]	EC50 [2, 5]	EC50 [3, 6]	EC50 ([1]; MT4 cells, HIV-IIIb wildtype, 5 days, CellTiter-Glo)	EC50 ([2]; MT4 cells, HIV-IIIb IN T174I BT (viral breakthrough), 5 days, CellTiter-Glo, read-out: T174I BT EC50)	EC50 ([3]; MT4 cells, HIV-IIIb IN T174I DE (dose escalation), 5 days, CellTiter-Glo, read-out: T174I DE EC50)
CC(=O)N1CC(N2CCC(c3cn(C)c4ncc(-c5nc6cc(C)c([C@H](OC(C)(C)C)C(=O)O)c(-c7ccc(Cl)cc7)c6s5)nc34)CC2)C1 [Compound 200, (S)-2-(2-(7-(1-(1-acetylazetidin-3-yl)piperidin-4-yl)-5-methyl-5H-pyrrolo[2,3-b]pyrazin-2-yl)-7-(4-chlorophenyl)-5-methylbenzo [d]thiazol-6-yl)-2-(tert-butoxy) acetic acid]	1 nM	90 nM	241 nM			
(S)-2-(tert-butoxy)- 2-(7-(4-chloro- phenyl)-2-(3-(1- ((S)-1-(methoxy- carbonyl) pyrrolidin- 3-yl)piperidin-4- yl)-1-methyl-1H- pyrrolo[2,3-b] pyridin-5-yl)-5- methylbenzo[d] thiazol-6-yl) acetic acid [Compound 202]				7 nM	157 nM	680 nM
CC(=O)N1CC(N2CCC(c3nn(C4CC4)c4ccc(-c5nc6cc(C)c([C@H](OC(C)(C)C)C(=O)O)c(-c7ccc(Cl)cc7)c6s5)cc34)CC2)C1 [Compound 45, (S)-2-(2-(3-(1-(1-acetylazetidin-3-yl)piperidin-4-yl)-1-cyclopropyl-1H-indazol-5-yl)-7-(4-chlorophenyl)-5-methylbenzo[d]thiazol-6-yl)-2-(tert-butoxy)acetic Acid]	17 nM	174 nM	287 nM			
Cc1cc2nc(-c3cnc4c(c3)c(N3CCN(C5COC5)CC3)nn4C)sc2c(-c2ccc(Cl)cc2)c1[C@H](OC(C)(C)C)C(=O)O [Compound 112, (S)-2-(tert-butoxy)-2-(7-(4-chlorophenyl)-5-methyl-2-(1-methyl-3-(4-(oxetan-3-yl)piperazin-1-yl)-1H-pyrazolo[3,4-b]pyridin-5-yl)benzo[d]thiazol-6-yl)acetic Acid]	10 nM	1250 nM	2110 nM			
Cc1cc2nc(-c3ccc4c(c3)c(C3CCN(C5COC5)CC3)nn4CC(F)F)sc2c(-c2ccc(Cl)cc2)c1[C@H](OC(C)(C)C)C(=O)O [Compound 42, (S)-2-(tert-butoxy)-2-(7-(4-chlorophenyl)-2-(1-(2,2-difluoroethyl)-3-(1-(oxetan-3-yl)piperidin-4-yl)-1H-indazol-5-yl)-5-methylbenzo[d]thiazol-6-yl)acetic acid]	5040 nM	5710 nM	5710 nM			
CCOC(=O)N1CCC(c2nn(C)c3ccc(-c4nc5cc(C)c([C@H](OC(C)(C)C)C(=O)O)c(-c6ccc(Cl)cc6)c5s4)cc23)CC1 [Compound 24]	16 nM	769 nM	1090 nM			
COC(=O)N1CC[C@@H](N2CCC(c3nn(C)c4ccc(-c5nc6cc(C)c([C@H](OC(C)(C)C)C(=O)O)c(-c7ccc(Cl)cc7)c6s5)nc34)CC2)C1 [Compound 208, (S)-2-(tert-butoxy)-2-(7-(4-chloro-phenyl)-2-(3-(1-((R)-1-(methoxy-carbonyl)pyrrolidin-3-yl)piperidin-4-yl)-1-methyl-1H-pyrazolo[4,3-b]pyridin-5-yl)-5-methylbenzo[d]thiazol-6-yl) acetic acid]	2 nM	54 nM	206 nM			
Cc1cc2nc(-c3ccc4c(c3)c(C3CCN(C5CN(C(C)C(F)(F)F)C5)CC3)nn4C)sc2c(-c2ccc(Cl)cc2)c1[C@H](OC(C)(C)C)C(=O)O (stereo partly drawn) [Compound 8, (2S)-2-(tert-butoxy)-2-(7-(4-chlorophenyl)-5-methyl-2-(1-methyl-3-(1-(1-(1,1,1-trifluoropropan-2-yl)azetidin-3-yl)piperidin-4-yl)-1H-indazol-5-yl)benzo[d]thiazol-6-yl)acetic Acid]	13 nM	1090 nM	1330 nM			
Cc1cc2nc(-c3ccc4c(c3)c(C3CCN(C(=O)OC(C)(C)C)C3)nn4C)sc2c(-c2ccc(Cl)cc2)c1[C@H](OC(C)(C)C)C(=O)O (stereo partly drawn) [Compound 62, (2S)-2-(tert-butoxy)-2-(2-(3-(1-(tert-butoxycarbonyl)pyrrolidin-3-yl)-1-methyl-1H-indazol-5-yl)-7-(4-chlorophenyl)-5-methylbenzo[d]thiazol-6-yl)acetic acid]	108 nM	331 nM	514 nM			
